Source: patent publication US4564619A, “Carbostyril derivative” (Otsuka Pharmaceutical Co., Ltd., priority 1982, dated 1986)

How the values were obtained:
[1] = Change of blood pressure, intravenous administration, anesthetized dog; assay type: in vivo; set-up: unit not given here; settings: femoral artery
Protocol: (§1) The change of blood flow in coronary artery and the change of blood pressure were measured by a method according to Yakura et al., [Japan Journal of Pharmacology, Vol. 57, pages 380-391 (1961)] and according to Taira, et al. [Clin. Exp. Pharmacol. Physiol., Vol. 6, pages 301-316, (1976)].
(§2) An adult bastard dog of either sex weighing 8-13 kg was anesthetized with sodium pentobarbital at the rate of 30 mg/kg by intraveneous administration, then the dog was fixed in supination and was theracotomized under a condition of forced breathing. After another intraveneous administration of sodium heparin at the rate of 500 U/kg, 100 U/kg per hour, the dog was subjected to the following experiments.
(§3) (2) Intraveneous administration
(§4) Morawitz's cannula was cannulated to the coronary sinus venosus through the auricula dextra cordis, and the blood in vein was circulated to the right carotid. The blood flow was measured by an electromagnetic blood flow meter equipped with a blood flow observation probe in the extracorporeal circulation path of the vein. The systolic force was measured by a systolometer (pick-up) placed at the left ventricle of heart, the blood pressure was measured from the femoral artery, and the heart rate was measured from the pulse. A compound to be tested was administered through the cannula being cannulated in femoral vein. The increased amount of the blood flow in coronary artery after the administration of the test compound is shown in Table 4, also the change of blood pressure is shown in Table 5.

[2] = test system: ADP-induced aggregation in rabbit platelets; assay: Inhibition of ADP-induced platelet aggregation in rabbit platelet rich plasma; assay type: cell-based; settings: Oryctolagus cuniculus, read-out: Inhibition rate of ADP-induced aggregation; for inhibition at 100 µM (stock): Concentration of the test compound solution 10^-4 mole; for inhibition at 10 µM (stock): Concentration of the test compound solution 10^-5 mole
Protocol: (§5) The platelet aggregation inhibitory effect was measured by using a Platelet Aggregation Tracer Model PAT-6M (manufactured by Nikoh Bio-Science Co., Ltd.) by a method according to Kimura, et al., [IGAKU-NO-AYUMI (Progress in Medicine), Vol. 114, No. 9, pp. 718-727, Aug. 30, 1980, and Nature, pp. 927-929, 1962].
(§6) The blood sample used for the test was a 1:9 (by volume) mixture of "3.8%-CITRATE"® (a registered trademark for 3.8%-sodium citrate, manufactured by Green Cross Corp.) and whole blood collected from rabbits. Said sample was subjected to 10-minute centrifugal separation at 1,000 r.p.m. (200xG) to obtain a platelet rich plasma (PRP). The PRP thus obtained was separated, and the remaining blood sample was further subjected to 15-minute centrifugal separation at 3,000 r.p.m. (2,000xG) to obtain a platelet poor plasma (PPP).
(§7) The number of platelets in the PRP was counted by the Brecher-Clonkite Method, and the PRP was diluted with the PPP to prepare a PRP sample with a platelet concentration of 600,000/microliter to prepare for an adenosine diphosphate (ADP)-induced aggregation test, and a collagen-induced aggregation test. 0.2 Milliliter of the PRP sample was added to 2 microliters of a solution of a test compound of predetermined concentration and this mixture was placed in a 37° C. thermostat for one minute. Then 20 microliters of an ADP or collagen solution was added to the mixture. In this test, the ADP solution was prepared by adjustment to a concentration of 7.5×10^-5 M by using Auren-Beronal buffer solution (pH 7.35). Further, the collagen solution was prepared by adjustment to a concentration of 200 micrograms/ml by using collagen reagent of "Holm"® (manufactured by Hormon-Chemie Munchen, GmbH.) which was diluted wih a physiological saline solution.
(§8) The transmittance of the resultant test mixture was determined and the change of transmittance was recorded by using the aggregometer at a stirrer speed of 1,100 r.p.m.
(§9) The platelet aggregation inhibitory effect of the test compound was measured in terms of inhibition rate (%) with respect to the aggregation rate of the controls. The aggregation rate was calculated from the following formula.
(§10) Aggregation rate=[(c-a)/(b-a)]×100
(§11) The percent inhibition is calculated from the following formula.
(§12) Inhibition rate (%)=[(A-B)/A]×100
(§13) The inhibitory effect of the test compounds on collagen-induced aggregation in rabbit platelets is shown in Table 1, similarly such effect on ADP-induced aggregation in rabbit platelets is shown in Table 2.

coronary artery = assay: Increased amount of the blood flow in coronary artery, intravenous administration, anesthetized dog; assay type: in vivo
Protocol: as §1, §2, §3, §4

[3] = test system: collagen-induced aggregation in rabbit platelets; assay: Inhibition of collagen-induced platelet aggregation in rabbit platelet rich plasma; assay type: cell-based; settings: Oryctolagus cuniculus, read-out: Inhibition rate of collagen-induced aggregation; for inhibition at 100 µM (stock): Concentration of the test compound solution 10^-4 mole; for inhibition at 10 µM (stock): Concentration of the test compound solution 10^-5 mole
Protocol: as §5, §6, §7, §8, §9, §10, §11, §12, §13

SMILES | Change of blood pressure ([1]; 10 micrograms/kg) | Change of blood pressure ([1]; 30 micrograms/kg) | Change of blood pressure ([1]; 100 micrograms/kg) | Change of blood pressure ([1]; 300 micrograms/kg) | inhibition at 100 µM (stock) [2] [%] | inhibition at 100 µM (stock) [3] [%] | further results
CCCOc1ccc(OCCCOC(=O)C2=C(C)NC(C)=C(C(=O)OC)C2c2cccc([N+](=O)[O-])c2)c2c1NC(=O)CC2 (centres unmarked) [Compound 11, 5-{3-[2,6-Dimethyl-5-methoxycarbonyl-4-(3-nitrophenyl)-1,4-dihydropyridin-3-carboxy]-propoxy}-8-propoxy-3,4-dihydrocarbostyril] | -18 | -33 | -41 | -48 | 11 |  | Change of blood pressure ([1]; 3 micrograms/kg): -5; Increased amount of the blood flow in coronary artery (coronary artery; 3 micrograms/kg): 7 mL/min; Increased amount of the blood flow in coronary artery (coronary artery; 10 micrograms/kg): 26 mL/min; Increased amount of the blood flow in coronary artery (coronary artery; 30 micrograms/kg): 58 mL/min; Increased amount of the blood flow in coronary artery (coronary artery; 100 micrograms/kg): 56 mL/min; Increased amount of the blood flow in coronary artery (coronary artery; 300 micrograms/kg): 73 mL/min
C#CCOc1ccc(OCCCOC(=O)C2=C(C)NC(C)=C(C(=O)OC)C2c2cccc([N+](=O)[O-])c2)c2c1NC(=O)CC2 (centres unmarked) [Compound 12, 5-{3-[2,6-Dimethyl-5-methoxycarbonyl-4-(3-nitrophenyl)-1,4-dihydropyridin-3-carboxy]-propoxy}-8-(2-propynyloxy)-3,4-dihydrocarbostyril] | -5 | -23 | -49 |  | 14 |  | Increased amount of the blood flow in coronary artery (coronary artery; 3 micrograms/kg): 5 mL/min; Increased amount of the blood flow in coronary artery (coronary artery; 10 micrograms/kg): 30 mL/min; Increased amount of the blood flow in coronary artery (coronary artery; 30 micrograms/kg): 74 mL/min; Increased amount of the blood flow in coronary artery (coronary artery; 100 micrograms/kg): 63 mL/min
COC(=O)C1=C(C)NC(C)=C(C(=O)OCCOc2cccc3c2NC(=O)CC3)C1c1cccc([N+](=O)[O-])c1 (centres unmarked) [Compound 13, 8-{2-[2,6-Dimethyl-5-methoxycarbonyl-4-(3-nitrophenyl)-1,4-dihydropyridin-3-carboxy]-ethoxy}-3,4-dihydrocarbostyril] | -16 | -32 | -52 |  |  |  | Change of blood pressure ([1]; 3 micrograms/kg): -7
COC(=O)C1=C(C)NC(C)=C(C(=O)OCCOc2ccc3c(c2)NC(=O)CC3)C1c1cccc([N+](=O)[O-])c1 (centres unmarked) [Compound 14, 7-{2-[2,6-Dimethyl-5-methoxycarbonyl-4-(3-nitrophenyl)-1,4,-dihydropyridin-3-carboxy]-ethoxy}-3,4-dihydrocarbostyril] |  | -2 | -14 | -32 |  |  | 
COC(=O)C1=C(C)NC(C)=C(C(=O)OCCCCOc2ccc3[nH]c(=O)ccc3c2)C1c1cccc([N+](=O)[O-])c1 (centres unmarked) [Compound 15, 6-{4-[2,6-Dimethyl-5-methoxycarbonyl-4-(3-nitrophenyl)-1,4-dihydropyridin-3-carboxy]-butoxy}carbostyril] |  | -3 | -9 | -27 | 100 | 100 | inhibition at 10 µM (stock) [3]: 26%; inhibition at 10 µM (stock) [2]: 20%
COC(=O)C1=C(C)NC(C)=C(C(=O)OCCCCOc2ccc3c(c2)CCC(=O)N3)C1c1cccc([N+](=O)[O-])c1 (centres unmarked) [Compound 16, 6-{4-[2,6-Dimethyl-5-methoxycarbonyl-4-(3-nitrophenyl)-1,4-dihydropyridin-3-carboxy]-butoxy}-3,4-dihydrocarbostyril] | -12 | -27 |  | -54 |  |  | Change of blood pressure ([1]; 3 micrograms/kg): -3
COC(=O)C1=C(C)NC(C)=C(C(=O)OCCCCOc2cccc3c2CCC(=O)N3)C1c1cccc([N+](=O)[O-])c1 (centres unmarked) [Compound 17, 5-{4-[2,6-Dimethyl-5-methoxycarbonyl-4-(3-nitrophenyl)-1,4-dihydropyridin-3-carboxy]-butoxy}-3,4-dihydrocarbostyril] | -4 | -14 | -55 | -76 |  |  | 
COC(=O)C1=C(C)NC(C)=C(C(=O)OCCCCOc2cccc3[nH]c(=O)ccc23)C1c1cccc([N+](=O)[O-])c1 (centres unmarked) [Compound 18, 5-{4-[2,6-Dimethyl-5-methoxycarbonyl-4-(3-nitrophenyl)-1,4-dihydropyridin-3-carboxy]-butoxy}carbostyril] | -5 | -19 | -33 | -43 | 48 | 100 | inhibition at 10 µM (stock) [3]: 3%; inhibition at 10 µM (stock) [2]: 15%
COC(=O)C1=C(C)NC(C)=C(C(=O)OCC(COc2ccc3c(c2)CCC(=O)N3)OC(C)=O)C1c1cccc([N+](=O)[O-])c1 (centres unmarked) [Compound 23, 6-{3-[2,6-Dimethyl-5-methoxycarbonyl-4-(3-nitrophenyl)-1,4-dihydropyridin-3-carboxy]-2-acetoxypropoxy}-3,4-dihydrocarbostyril] |  |  |  |  | 79 | 100 | inhibition at 10 µM (stock) [3]: 29%; inhibition at 10 µM (stock) [2]: 29%
COC(=O)C1=C(C)NC(C)=C(C(=O)OCCCCOc2ccc3c(c2)CCC(=O)N3)C1c1ccccc1C(F)(F)F (centres unmarked) [Compound 25, 6-{4-[2,6-Dimethyl-5-methoxycarbonyl-4-(2-trifluoromethylphenyl)-1,4-dihydropyridin-3-carboxy]butoxy}-3,4-dihydrocarbostyril] | -34 | -46 |  |  |  |  | Change of blood pressure ([1]; 3 micrograms/kg): -9
COC(=O)C1=C(C)NC(C)=C(C(=O)OCC(O)COc2ccc3c(c2)CCC(=O)N3)C1c1cccc([N+](=O)[O-])c1 (centres unmarked) [Compound 39, 6-{3-[2,6-Dimethyl-5-methoxycarbonyl-4-(3-nitrophenyl)-1,4-dihydropyridin-3-carboxy]-2-hydroxypropoxy}-3,4-dihydro-carbostyril] |  |  |  |  | 76 | 100 | inhibition at 10 µM (stock) [3]: 19%
COC(=O)C1=C(C)NC(C)=C(C(=O)OCCCCOc2ccc3c(c2)CCC(=O)N3)C1c1ccc(OC)c(OC)c1 (centres unmarked) [Compound 40, 6-{4-[2,6-Dimethyl-5-methoxycarbonyl-4-(3,4-dimethoxyphenyl)-1,4-dihydropyridin-3-carboxy]butoxy}-3,4-dihydrocarbostyril] |  |  |  |  | 14 | 15 | 
COC(=O)C1=C(C)NC(C)=C(C(=O)OCCCCOc2ccc3c(c2)CCC(=O)N3)C1c1cc(OC)c(OC)c(OC)c1 (centres unmarked) [Compound 41, 6-{4-[2,6-Dimethyl-5-methoxycarbonyl-4-(3,4,5-trimethoxyphenyl)-1,4-dihydropyridin-3-carboxy]butoxy}-3,4-dihydrocarbostyril] |  |  |  |  | 30 | 35 | 
COC(=O)C1=C(C)NC(C)=C(C(=O)OCCCCOc2ccc3c(c2)CCC(=O)N3)C1c1ccc(Cl)cc1Cl (centres unmarked) [Compound 42, 6-{4-[2,6-Dimethyl-5-methoxycarbonyl-4-(2,4-dichlorophenyl)-1,4-dihydropyridin-3-carboxy]butoxy}-3,4-dihydrocarbostyril] |  |  |  |  | 26 | 39 | 
